Patent US20230102223A1, “PHARMACEUTICAL COMPOSITIONS WITH ANTIFLAVIVIRAL ACTIVITY” (HEALTH RESEARCH, INC., priority 2016, published 2023)
Read-outs that look alike come from different tables or passages of the source.

Columns and labels:
[1] = molecular target: refolded His-NS3 protease domain (Dengue virus type 2, UniProt P29990); assay: Surface plasmon resonance (SPR); assay type: binding; settings: 25° C., 1:1 Langmuir binding model; read-out: dissociation constant (KD)
[2] = tested on: A549 cells; assay: Cytotoxicity, MTT or WST-8 cell proliferation assay
[3] = tested on: DENV2
[4] = tested on: ZIKV strain GZ01; settings: ZIKV strain GZ01, Vero cells, RT-qPCR
[5] = molecular target: DENV2 His-NS2B/His-MBP-NS3 protease (Dengue virus type 2, UniProt P29990); assay: NS2B/NS3 protease inhibition assay; assay type: biochemical
[6] = tested on: POWV; assay type: cell-based, Powassan virus; settings: without ambient light (in dark)
[7] = molecular target: NS2B-NS3 interactions (Nluc-E66stop/GCN) (Dengue virus type 2, UniProt P29990); assay: biochemical; assay type: binding, DENV2; settings: NS2B-NS3 SLC signal; read-out: SLC IC50
[8] = tested on: SLEV; assay type: cell-based, St. Louis encephalitis virus; settings: without ambient light (in dark)
[9] = tested on: ZIKV (Puerto Rico strain PRVABC59); assay: Viral titer reduction assay in A549 cells, ZIKV; assay type: cell-based, Zika virus
[10] = tested on: ZIKV; assay: Time-of-addition experiment in infected A549 cells; assay type: cell-based, Zika virus; settings: for virus reduction: titers at 48 h, no ambient light
[11] = tested on: YFV; assay: microbe, parasite or virus in culture; assay type: cell-based, yellow fever virus; settings: YFV*, without ambient light (in dark)
[12] = tested on: WNV; assay: microbe, parasite or virus in culture; assay type: cell-based, West Nile virus; settings: WNV*, without ambient light (in dark)
[13] = tested on: ZIKV strain GZ01/2016; assay: Viremia model in immunocompetent Balb/C mice; assay type: in vivo; settings: 0.02 mg/mice ip daily for 2 days; RT-qPCR on day 2 post-infection
Protocol: Viremia on day 2 post-infection (pi) was determined by RT-qPCR, and statistical analysis was performed using the unpaired, two-tailed t-test.

[14] = tested on: ZIKV GZ01/2016 strain; assay: Lethal A129 mice model; assay type: in vivo; settings: 1 mg/kg ip daily for 5 days
From the text: For the lethal A129 mice model, a group of four-week old A129 mice were infected intraperitoneally (ip) with 2×10^5 PFU of ZIKV GZ01/2016 strain. […] Mice were observed daily for signs of illness and mortality. Survival curves were compared using the Log-rank test. All the ZIKV-infected animals treated with vehicle died with typical neurological symptoms including hind limb weakness and paralysis (FIG. 31B). […] Viremia was detected by RT-qPCR on day 2 post-ZIKV infection in three-week old Balb/C mice.

[15] = molecular target: DENV2 His-MBP-NS3 (Dengue virus type 2, UniProt P29990); assay: Protein thermal shift assay (PTSA); assay type: binding; settings: compound 4.8 μM, protein 2.5 μM
Protocol: PTSA was conducted using an Applied Biosystem 7500 Fast Real-Time PCR System (ThermoFisher Scientific) from 25 to 80° C. The DENV2 His-MBP-NS3 (final concentration of 2.5 μM in 1× PBS) was mixed with each compound to attain a 4.8 μM final concentration in 1.6% DMSO in the MicroAmp® Fast Optical 96-Well Reaction Plate (ThermoFisher Scientific). Thermal denaturation was monitored using SYPRO Orange (Life Technologies) according to manufacturer's manual. The denaturation of the proteins was monitored by following the increase of the fluorescence emitted by the probe that binds exposed hydrophobic regions of the denatured protein. The melting temperature (Tm) was calculated as the mid-log of the transition phase from the native to the denatured protein, using a Derivative model using the Protein Thermal Shift™ Software v1.0 (ThermoFisher Scientific). The reference unfolding temperature of proteins in 1.6% DMSO (Tm-DMSO) was subtracted from the values in the presence of each compounds (Tm-comp) to obtain thermal shifts, ΔTm=Tm-comp−Tm-DMSO. Compounds were considered to be binders when ΔTm>0.5° C.

[16] = molecular target: ZIKV GST-NS3 protease domain / FLAG-tagged ZIKV NS2B (Zika virus, UniProt Q32ZE1); assay: Competitive GST pull-down assay; assay type: binding; settings: pre-incubation with GST-NS3 beads; dose-dependent
Protocol: GST-NS3 or the GST-tag (10 μg) was immobilized on Glutathione sepharose-4B affinity beads (GE HealthCare). FLAG-tagged NS2B (10 μg) was incubated with the beads for 2 hours, and subjected to WB, using anti-FLAG (Genscript) and anti-GST antibodies (GE Healthcare). […] The assay was performed the same as in FIG. 32A, except that 2-fold dilution series of drugs were incubated with the GST-NS3 beads overnight prior to incubation with the FLAG-NS2B. […] The binding of NS2B to NS3 in the absence of each drag (DMSO control) was set as 100%. The relative binding of NS2B to NS3 in the presence of each drug was normalized to the DMSO control.

[17] = tested on: ZIKV NS3 expression; assay: Western blot of viral protein expression; assay type: cell-based; settings: 48 hrs; dose-dependent
Protocol: The ability of compounds to inhibit viral protein expression was also tested by WB, using GTX133309 ZIKV α-NS3 antibody (GeneTex, Inc.).
Lower panel, NS3 expression normalized to the GAPDH loading control.

[18] = tested on: JEV; assay: microbe, parasite or virus in culture; assay type: cell-based, Japanese encephalitis virus; settings: JEV*, without ambient light (in dark)
[19] = ZIKV*, without ambient light (in dark)

Sequence of DENV2 His-NS2B/His-MBP-NS3 protease (P29990 1476-1660 limits assumed): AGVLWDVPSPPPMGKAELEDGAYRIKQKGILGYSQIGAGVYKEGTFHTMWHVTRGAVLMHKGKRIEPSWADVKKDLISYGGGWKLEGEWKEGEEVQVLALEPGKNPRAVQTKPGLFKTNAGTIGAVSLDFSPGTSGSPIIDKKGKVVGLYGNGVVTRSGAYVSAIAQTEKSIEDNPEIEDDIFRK
Sequence of refolded His-NS3 protease domain (P29990 1476-1653 limits assumed): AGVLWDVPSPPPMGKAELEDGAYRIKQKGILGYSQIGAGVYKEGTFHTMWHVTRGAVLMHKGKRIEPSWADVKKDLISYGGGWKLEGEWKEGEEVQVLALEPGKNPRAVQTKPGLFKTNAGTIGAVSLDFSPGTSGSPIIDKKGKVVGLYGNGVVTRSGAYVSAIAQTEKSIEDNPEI
Sequence of DENV2 His-MBP-NS3 (P29990 1476-1660 limits assumed): as the sequence (P29990 1476-1660 limits assumed) above
Sequence of NS2B-NS3 interactions (Nluc-E66stop/GCN) (P29990 1476-1660 limits assumed): as above
Sequence of ZIKV GST-NS3 protease domain / FLAG-tagged ZIKV NS2B (Q32ZE1 1499-1676): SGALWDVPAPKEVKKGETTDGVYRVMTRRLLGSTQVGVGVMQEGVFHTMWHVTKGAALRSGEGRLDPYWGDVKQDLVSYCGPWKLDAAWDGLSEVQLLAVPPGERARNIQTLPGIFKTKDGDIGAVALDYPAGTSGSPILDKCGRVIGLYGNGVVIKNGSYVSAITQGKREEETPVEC

## 3-[10,15,20-tris(3-hydroxyphenyl)-2,3,22,24-tetrahydroporphyrin-5-yl]phenol [Temoporfin]
[1]
  Kd: 400 nM
[2]; A549 cells, Table 1
  CC50: 40.7 µM
[2]; Table 3
  CC50: 40.7 ± 0.7 µM
[3]; DENV2, Table 3
  EC50: 20 ± 3 nM
  EC90: 110 nM
[3]; read-out: EC50 (DENV2), Table 1
  EC50: 73 nM
[4]
  EC50 value: 0.1 µg/mL
[5]; Table 1, read-out: NS2B-MBP NS3 protease IC50
  IC50: 760 nM
[5]; Table 3, read-out: IC50-pro
  IC50: 1100 ± 100 nM
[5]; compound at 1.5 μM, 50 nM MBP-NS3, 1 μM His-NS2B, Abz substrate
  Vmax of the His-NS2B/MBP-NS3 hetero protease complex, % of the DMSO control: 57%
[5]; compound at 1.5 μM, Abz substrate
  Km versus DMSO control: similar
[6]
  EC50: 10 ± 1 nM
  EC90: 32 nM
[7]
  IC50: 11.2 µM
[8]
  EC50: 8 ± 1 nM
  EC90: 25 nM
[9]; ZIKV
  EC50: 24 ± 3 nM
  EC90: 130 nM
[9]; [19]
  EC50: 22 ± 2 nM
  EC90: 120 nM
[9]; in dark
  titer of ZIKV in the absence of light exposure: significantly reduced the titer
[10]; 90 nM added at 0 hours postinfection
  virus reduction: 92.3%
[10]; 90 nM added at 1 hour postinfection
  virus reduction: 92%
[10]; 90 nM added at 3 hours postinfection
  virus reduction: 90.5%
[10]; 90 nM added at 22 hours postinfection
  virus reduction: 86.5%
[10]; temoporfin 90 nM, niclosamide 0.75 μM, viral plaque reduction assay
  effectiveness of addition at 24-hour post-infection versus at the time of infection: almost equally effective
[11]; read-out: EC50
  EC50: 6 ± 1 nM
[11]; read-out: EC90
  EC90: 15 nM
[12]
  EC90: 30 nM
[12]; read-out: EC50
  EC50: 10 ± 1 nM
[13]
  reduction in ZIKV-induced viremia compared to the vehicle control: about 100 fold
[14]
  infected animals protected (survival): 83%
[15]
  Tm compared to the DMSO control: increased Tm
[16]
  binding of FLAG-NS2B to GST-NS3: significantly decreased the binding
[17]
  expression of ZIKV NS3 (western blot): significantly inhibited
[18]
  EC50: 11 ± 1 nM
  EC90: 25 nM
